Measurements published in US20050153998A1, “Tetrahydroisoquinoline or isochroman compounds” (priority 2003, published 2005).

Molecular target: T1, human ORL1 receptor (Homo sapiens, UniProt P41146)
T1 construct: expressed in transfected cells; host or cells: HEK-293
Experiment: ORL1-receptor binding assay ([3H]nociceptin, SPA)
Settings: human ORL1 receptor transfected HEK-293 cell membranes, 0.4 nM [3H]nociceptin; read-out: IC50 value with regard to binding activity for the ORL1 receptor
Protocol: The human ORL1 receptor transfected HEK-293 cell membranes were incubated for 45 min at 22° C. with 0.4 nM [^3H]nociceptin, 1.0 mg of wheat germ agglutinin-coated SPA beads and various concentrations of test compounds in a final volume of 200 μl of 50 mM HEPES buffer pH7.4 containing 10 mM MgCl2 and 1 mM EDTA. Non-specific binding was determined by the addition of 1 μM unlabeled nociceptin. After the reaction, the assay plate was centrifuged at 1,000 rpm for 1 min and then the radioactivity was measured by a Liquid Scintillation Counter.
Each percent NSB thus obtained was graphed as a function of compound concentration. A sigmoidal curve was used to determine 50% bindings (i.e., IC50 values).

T1 sequence (P41146 whole entry): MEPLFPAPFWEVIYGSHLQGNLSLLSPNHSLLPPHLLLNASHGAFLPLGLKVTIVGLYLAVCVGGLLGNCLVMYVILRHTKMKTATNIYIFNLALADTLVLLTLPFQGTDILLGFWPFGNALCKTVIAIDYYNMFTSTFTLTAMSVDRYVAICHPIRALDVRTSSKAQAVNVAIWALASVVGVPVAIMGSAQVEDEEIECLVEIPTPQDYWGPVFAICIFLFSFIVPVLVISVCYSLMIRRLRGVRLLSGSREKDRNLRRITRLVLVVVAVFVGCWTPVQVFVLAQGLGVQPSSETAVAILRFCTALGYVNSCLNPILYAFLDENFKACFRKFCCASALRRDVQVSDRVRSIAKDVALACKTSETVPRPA

## CN1CC2(CCN(CC3Cc4c(F)ccc(O)c4CN3)CC2)c2ccccc21 (centres unmarked) [Example 11, 5-Fluoro-3-[(1-methyl-1,2-dihydro-1′H-spiro[indole-3,4′-piperidin]-1′-yl)methyl]-1,2,3,4-tetrahydroisoquinolin-8-ol]
  IC50: 7.4 nM

## CN1C(=O)C2(CCN(CC3Cc4c(F)ccc(O)c4CN3)CC2)c2ccccc21 (centres unmarked) [Example 22, 1′-[(5-Fluoro-8-hydroxy-1,2,3,4-tetrahydroisoquinolin-3-yl)methyl]-1-methylspiro[indole-3,4′-piperidin]-2(1H)-one]
  IC50: 4.9 nM
